We go through 29 compounds from PubChem BioAssay AID256 (DTP/NCI, 2004).

Several values for one entry are separate records, joined by “and”; a condition that tells them apart may be missing. Identical values can stand only once. Toxic doses and inconclusive results are not listed.

The test system of the experiment is CD2F1 mice, L1210 leukemia ip, survival T/C. Briefly: NCI In Vivo Anticancer Drug Screen. Data for tumor model L1210 Leukemia (intraperitoneal) in CD2F1 (CDF1) mice. Conditions: endpoint: mean survival time, higher = longer survival. The gist of the method: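 In this screen, transplantable tumors were grown in mice given either the compound or its vehicle. Results were expressed as the treated measurement relative to the control measurement.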

Where [1] appears, read: dose: 100.0 mg/kg/injection, schedule: Q04DX003 (ip), vehicle: saline with Tween-80.
Setting [2] is: dose: 200.0 mg/kg/injection, schedule: Q04DX003 (ip), vehicle: saline with Tween-80.
Where [3] appears, read: dose: 400.0 mg/kg/injection, schedule: Q04DX003 (ip), vehicle: saline with Tween-80.
[4] abbreviates: dose: 100.0 mg/kg/injection, schedule: Q04DX002 (ip), vehicle: saline with Tween-80.
Setting [5] is: dose: 200.0 mg/kg/injection, schedule: Q04DX002 (ip), vehicle: saline with Tween-80.
Where [6] appears, read: dose: 400.0 mg/kg/injection, schedule: Q04DX002 (ip), vehicle: saline with Tween-80.
The mark [7] stands for this setting: dose: 25.0 mg/kg/injection, schedule: Q04DX002 (ip), vehicle: saline with Tween-80.
The mark [8] stands for this setting: dose: 50.0 mg/kg/injection, schedule: Q04DX002 (ip), vehicle: saline with Tween-80.
Where [9] appears, read: dose: 100.0 mg/kg/injection, schedule: Q01DX001 (ip), vehicle: saline.
Where [10] appears, read: dose: 200.0 mg/kg/injection, schedule: Q01DX001 (ip), vehicle: saline.
The mark [11] stands for this setting: dose: 400.0 mg/kg/injection, schedule: Q01DX001 (ip), vehicle: saline.
[12] abbreviates: dose: 12.5 mg/kg/injection, schedule: Q04DX003 (ip), vehicle: saline with Tween-80.
Where [13] appears, read: dose: 25.0 mg/kg/injection, schedule: Q04DX003 (ip), vehicle: saline with Tween-80.
Setting [14] is: dose: 200.0 mg/kg/injection, schedule: Q01DX009 (ip), vehicle: saline with Tween-80.

Consider `O=C1OC(=O)C2C3C=CC(C12)C1C2C(=O)OC(=O)C2C31` (stereo unspecified), for which the T/C under setting [1] is 91 % of control and 101 % of control; the T/C under setting [2] was 94 % of control and 97 % of control; the T/C under setting [3] was 123 % of control and 94 % of control; the T/C (dose: 600.0 mg/kg/injection, schedule: Q04DX003 (ip), vehicle: saline with Tween-80) is 110 % of control.

In the case of `O=C(O)CCc1[nH]c2ccccc2c1CC(=O)O`, the T/C is 91 % of control under setting [4], 98 % of control under setting [5] and 119 % of control under setting [6].

Consider `[NH-]CC[NH-].[NH-]CC[NH-].[NH-]CC[NH-].[Ni+2].[O-][Cl+3]([O-])([O-])O`, for which the T/C is 117 % of control under setting [7] and 92 % of control under setting [8].

On to `CC(=O)OC1(C)C=C/C(=N\S(=O)(=O)c2ccc(C)cc2)c2ccccc21` (stereo unspecified), for which the T/C is, setting by setting: under setting [1], 95 % of control; under setting [2], 97 % of control; under setting [3], 95 % of control.

Turning to `CCOC1(C)OC2C(CO)OC(n3ccc4c(N)ncnc43)C2O1` (stereo unspecified), the T/C under setting [9] is 111 % of control.

As to `COc1ccc(-n2c(=O)[nH]c3c(c2=O)C(c2ccc(Cl)cc2)C(C)(C)O3)cc1` (stereo unspecified), the T/C under setting [4] is 100 % of control, the T/C under setting [5] was 95 % of control and the T/C under setting [6] is 103 % of control.

Take `CC(C)c1cc(O)c(C(C)C)cc1O`: the T/C (dose: 75.0 mg/kg/injection, schedule: Q01DX001 (ip), vehicle: saline) is 104 % of control and the T/C (dose: 150.0 mg/kg/injection, schedule: Q01DX001 (ip), vehicle: saline) is 111 % of control.

Turning to `CC(Oc1ccc(Cl)cc1)C(/C=N/N=C(N)N)=N/N=C(N)N` (stereo unspecified), the T/C was 100 % of control (dose: 1.56 mg/kg/injection, schedule: Q01DX009 (ip), vehicle: saline); 98 % of control (dose: 3.13 mg/kg/injection, schedule: Q01DX009 (ip), vehicle: saline); 102 % of control (dose: 6.25 mg/kg/injection, schedule: Q01DX009 (ip), vehicle: saline); 100 % of control (dose: 12.5 mg/kg/injection, schedule: Q01DX009 (ip), vehicle: saline); 96 % of control and 101 % of control (dose: 25.0 mg/kg/injection, schedule: Q01DX009 (ip), vehicle: saline).

Turning to `CCCNC(=O)Nc1ccc(C(=O)OCC(C)C)cc1`, the T/C (dose: 100.0 mg/kg/injection, schedule: Q04DX003 (ip), vehicle: saline) was 93 % of control; the T/C (dose: 200.0 mg/kg/injection, schedule: Q04DX003 (ip), vehicle: saline) is 95 % of control; the T/C (dose: 400.0 mg/kg/injection, schedule: Q04DX003 (ip), vehicle: saline) was 104 % of control.

Take `COC(=O)c1ccc(C)cc1C(=O)OC`: the T/C runs as follows: under setting [1], 97 % of control; under setting [2], 92 % of control.

With `CN(C)C(=O)Nc1ccc(F)cc1`, the T/C under setting [4] is 97 % of control, the T/C under setting [5] was 102 % of control and the T/C under setting [6] was 91 % of control.

`O=S(=O)(O)c1ccc(O)c(S(=O)(=O)O)c1`: the T/C was 97 % of control under setting [9], 101 % of control under setting [10] and 97 % of control under setting [11].

For `CCCCC(=O)/C=C/c1ccccc1`, the T/C was 97 % of control under setting [8], 87 % of control under setting [4], 105 % of control under setting [5] and 91 % of control under setting [6].

For `S=C1SCCS1`, the T/C was 98 % of control (dose: 100.0 mg/kg/injection, schedule: Q04DX003 (ip), vehicle: saline sonified); 107 % of control (dose: 200.0 mg/kg/injection, schedule: Q04DX003 (ip), vehicle: saline sonified); 89 % of control (dose: 400.0 mg/kg/injection, schedule: Q04DX003 (ip), vehicle: saline sonified).

For `CCn1c(N)c2c(ncn2Cc2ccccc2)nc1=S`, the T/C by setting is: (dose: 12.5 mg/kg/injection, schedule: Q01DX001 (ip), vehicle: acetone) 100 % of control; under setting [12], 98 % of control; (dose: 25.0 mg/kg/injection, schedule: Q01DX001 (ip), vehicle: acetone) 100 % of control; under setting [13], 98 % of control; (dose: 50.0 mg/kg/injection, schedule: Q01DX001 (ip), vehicle: acetone) 103 % of control; (dose: 50.0 mg/kg/injection, schedule: Q04DX003 (ip), vehicle: saline with Tween-80) 89 % of control.

Turning to `CSc1ccc(OC(=O)Nc2ccc(C)cc2C)cc1C`, the T/C is, setting by setting: (dose: 12.5 mg/kg/injection, schedule: Q01DX009 (ip), vehicle: saline with Tween-80) 95 % of control; (dose: 25.0 mg/kg/injection, schedule: Q01DX009 (ip), vehicle: saline with Tween-80) 91 % of control; (dose: 50.0 mg/kg/injection, schedule: Q01DX009 (ip), vehicle: saline with Tween-80) 87 % of control and 89 % of control; under setting [14], 93 % of control.

`S=C(S)NNc1ccccc1`: the T/C under setting [2] was 91 % of control.

`CN(C)C(=S)Oc1ccc(S(=O)(=O)F)cc1`: the T/C is 98 % of control under setting [4], 91 % of control under setting [5] and 109 % of control under setting [6].

For `CCC(O)C[As](=O)(O)c1ccccc1OC` (stereo unspecified), the T/C (dose: 6.25 mg/kg/injection, schedule: Q04DX003 (ip), vehicle: saline with Tween-80) is 97 % of control; the T/C under setting [12] was 97 % of control; the T/C under setting [13] is 103 % of control.

As to `O=C1N(c2ccccc2)SN2C3C=CC(C4CC43)N12` (stereo unspecified), the T/C is 114 % of control (dose: 12.5 mg/kg/injection, schedule: Q04DX002 (ip), vehicle: saline with Tween-80) and 105 % of control under setting [7].

With `COc1ccccc1C(=O)NS(=O)(=O)c1ccc(Cl)cc1`, the T/C reads like this: (dose: 100.0 mg/kg/injection, schedule: Q01DX009 (ip), vehicle: acetone) 101 % of control; (dose: 200.0 mg/kg/injection, schedule: Q01DX009 (ip), vehicle: acetone) 107 % of control.

For `O=C(NC1CCC(CC2CCCCC2)CC1)c1ccccc1` (stereo unspecified), the T/C (dose: 100.0 mg/kg/injection, schedule: Q01DX009 (ip), vehicle: saline with Tween-80) is 100 % of control; the T/C under setting [14] is 93 % of control; the T/C (dose: 400.0 mg/kg/injection, schedule: Q01DX009 (ip), vehicle: saline with Tween-80) was 114 % of control.

For `CC(=O)c1ccc(O)cc1O`, the T/C runs as follows: under setting [9], 102 % of control and 98 % of control; under setting [10], 102 % of control and 98 % of control; under setting [11], 107 % of control and 104 % of control.

With `O=[N+]([O-])C(CO)(CO)CO`, the T/C reads like this: (dose: 100.0 mg/kg/injection, schedule: Q01DX009 (ip), vehicle: saline) 98 % of control; (dose: 200.0 mg/kg/injection, schedule: Q01DX009 (ip), vehicle: saline) 96 % of control; (dose: 400.0 mg/kg/injection, schedule: Q01DX009 (ip), vehicle: saline) 104 % of control.

`COC(=O)C12CCc3ccoc3C1CCC1(C)C(C)=CCCC12` (stereo unspecified): the T/C reads like this: (dose: 50.0 mg/kg/injection, schedule: Q04DX002 (ip), vehicle: other) 115 % of control; (dose: 100.0 mg/kg/injection, schedule: Q04DX002 (ip), vehicle: other) 107 % of control; (dose: 200.0 mg/kg/injection, schedule: Q04DX002 (ip), vehicle: other) 107 % of control.

On to `O=S(=O)(Cl)c1cccc2c(S(=O)(=O)Cl)cccc12`, for which the T/C (dose: 20.0 mg/kg/injection, schedule: Q04DX003 (ip), vehicle: Klucel (hydroxypropylcellulose) (HPC)) is 102 % of control; the T/C (dose: 40.0 mg/kg/injection, schedule: Q04DX003 (ip), vehicle: Klucel (hydroxypropylcellulose) (HPC)) is 104 % of control; the T/C (dose: 80.0 mg/kg/injection, schedule: Q04DX003 (ip), vehicle: Klucel (hydroxypropylcellulose) (HPC)) was 95 % of control; the T/C (dose: 200.0 mg/kg/injection, schedule: Q04DX003 (ip), vehicle: Klucel (hydroxypropylcellulose) (HPC)) is 109 % of control; the T/C (dose: 400.0 mg/kg/injection, schedule: Q04DX003 (ip), vehicle: Klucel (hydroxypropylcellulose) (HPC)) was 122 % of control.

Take `O=C(O)CCS(=O)(=O)CCC(=O)O`: the T/C under setting [1] is 92 % of control, the T/C under setting [2] is 93 % of control and the T/C under setting [3] is 90 % of control.

On to `COc1ccccc1N=Nc1c(O)n(-c2ccccc2OC)c(=S)n(-c2ccc(Br)cc2)c1=O`, for which the T/C is 100 % of control under setting [7], 100 % of control under setting [8] and 95 % of control under setting [4].

With `CNC`, the T/C (dose: 100.0 mg/kg/injection, schedule: Q04DX002 (ip), vehicle: saline) is 86 % of control.
